Assay results: patent US20040162247A1, “Therapeutic agent or osteoporosis comprising an active ingredient of quercetin derivatives” (priority 2000, published 2004)

Assays:
[1] = system: human osteoblast-like cell line Saos-2; assay: Cell proliferation of Saos-2 cells, MTT method; assay type: cell-based; conditions: Saos-2, 3 days
Procedure: Saos-2 cell line which has similar properties to osteoblasts was obtained from Korean Cell Line Bank affiliated to the Cancer Research Institute of School of Medicine, Seoul National University.
Saos-2 cells were seeded in a RPMI 1640 medium (Gibco BRL, U.S.A.) supplemented with 10% (v/v) FBS, 100 unit/ml penicillin, 100 gg/ml streptomycin and grown to form a monolayer in an incubator at 37° C. under an environment of 5% (v/v) CO2 and saturated humidity. The culture was fed with fresh medium 2 to 3 times a week and subcultured once a week using 0.25% (w/v) trypsin.
Saos-2 cells were distributed into a 96-well plate (20,000 cells/well) and quercetin in 1% DMSO was added to a final concentration of 10-2 to 10^−9 mg/ml, 6 wells per each concentration. As a control group, cells without quercetin were used, and as a comparative group, the cells treated with various concentrations of genistein, being studied as a therapeutic agent for osteoporosis, were used. Cells were grown in an incubator at 37° C. for 3 days and incubated 4 more hours under the same condition after adding MTT (3-[4,5-dimethylthiazol-2-yl]-2,5-diphenyltetrazolium bromide, Triazolyl Blue) to a concentration of 0.05 mg/ml. Then, purple colored for-mazan formed in proportion to the number of viable cells was dissolved in DMSO and measured OD at 550 nm employing ELISA reader.
Cell proliferation rate (%) was evaluated by calculating the ratio of the OD of quercetin added well to the OD of control well, wherein, average value of ODs from 6 wells treated with the same concentration of quercetin was employed (see: Table 1).
cell proliferation rate (%)={(average value of OD at 550 nm of quercetin-treated wells—average value of OD at 550 nm of empty wells)/average value of OD at 550 nm of control wells}×100

[2] = system: ALP activity in osteoblasts (Saos-2); assay: Alkaline phosphatase (ALP) activity in osteoblasts; assay type: cell-based, human; conditions: Saos-2, 3 days
Procedure: Since osteoblasts have cell specific alkaline phosphatase activity, the effect of quercetin of the invention on ALP activity in osteoblasts was evaluated as follows: the number of cells, concentration of tested agent, and culture condition were same as those used in MTT experiment of Example 1-2, and cells were harvested after 3 day-incubation. Genistein was used as a comparative agent. ALP activity was evaluated by analysing changes of OD at 405 nm result from hydrolysis of p-nitrophenylphosphate to p-nitrophenol and phosphate (see: Table 1).

[3] = system: ovariectomized rats; assay: Trabecular bone area of tibia in ovariectomized rats;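 as to Change Rate (%) of TBA of tibia, of control group: control group rats were ovariectomized and are not the sham group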; assay type: in vivo, Female SD (Sprague-Dawley) rats; conditions: OVX rats, 9 weeks i.p. (E2 1 μg/kg/day; quercetin, genistein 10 mg/kg/day); for Change Rate (%) of TBA of tibia, of control group: control group = 100
Procedure: (§1) Trabecular bone area (TBA) of lumbar and tibia removed from the rats of each group which was treated with various agents for 9 weeks were measured as follows: that is, using a digitalizer of quantitative image analysis system (Wild Leitz Co.), image of each trabecula was obtained on computer monitor by drawing a contour of the trabecula, and then, using a computer, calculated were average areas of trabeculae within a rectangle of 2×10^6 μm^2 area wherein the width is about ⅔ of the length of growth plate which located underneath of growth plate at proximity of tibia. Also, following the number of trabeculae within the rectangle were obtained, average area was multiplied by the number of trabeculae to obtain trabecular bone area of each sample bone, which was analyzed statistically (see: Table 5).

[4] = system: ovariectomized rats; assay: Trabecular bone area of lumbars in ovariectomized rats;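 as to Change Rate (%) of TBA of lumbars, of control group: control group rats were ovariectomized and are not the sham group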; assay type: in vivo, Female SD (Sprague-Dawley) rats; conditions: OVX rats, 9 weeks i.p. (E2 1 μg/kg/day; quercetin, genistein 10 mg/kg/day); for Change Rate (%) of TBA of lumbars, of control group: control group = 100
Procedure: as §1
TBAs of lumbars removed from the animal treated with test agents for 9 weeks were measured employing the same method above (see: Table 6).

[5] = system: ovariectomized rats; assay: Complete blood count in ovariectomized rats; assay type: in vivo, Female SD (Sprague-Dawley) rats
Procedure: (§2) When test agents were administered, for a certain period of time before and after administration, 1.5 ml of blood was sampled from tail vein using a catheter (B.D Co.: 24 G) and subjected to complete blood count (Coulter Co.: JT) and biochemical analyses of plasma (Crone Co.: Airon® 200). During autopsy, blood was sampled from caudal venae cavae and subjected to the analyses above. And then, each sample was frozen to store for measurement of trabecular bone area of femur and examination of internal organs.
Complete blood count which reflects the condition and abnormality of the body was measured to find out abnormality in test animals caused by administrtion of agents. That is, to find out changes in hematopoiesis of test rats, measured were red blood cell (RBC) count, concentration of hemoglobin (Hb) and hematocrit (Ht) of-blood samples obtained from the rats prior to operation and the rats 10 weeks after administrating agents following operation, and to find out changes in immune system such as inflammation and necrosis of tissues, measured were white blood cell count, lymphocyte count, monocyte count, and granulocyte count (see: Table 7).

[6] = system: ovariectomized rats; assay: Biochemical parameters in plasma of ovariectomized rats; assay type: in vivo, Female SD (Sprague-Dawley) rats
Procedure: as §2
Since blood reflects the condition of body, safety of quercetin in the body was evaluated by measuring biochemical parameters: that is, blood samples were obtained from the rat prior to operation, one week after operation, and 10 weeks after operation, and measured were levels of alkaline phosphatase (ALP), calcium, inorganic phosphate, blood urea nitrogen (BUN), creatinin, total cholesterol, HDL-cholesterol and LDL-cholesterol (see: Table 8).

[7] = after operation and drug administration (E2 1 μg/kg/day; quercetin, genistein 10 mg/kg/day i.p.)
[8] = 1 week after operation (start of administration)
[9] = 10 weeks after operation, 9 weeks i.p. (E2 1 μg/kg/day; quercetin, genistein 10 mg/kg/day)

SMILES: O=c1c(-c2ccc(O)cc2)coc2cc(O)cc(O)c12 [Genistein, genistein]
- MTT assay (% of control group) ([1]; 1 × 10^−2 mg/ml): 66.2 ± 2.8 % of control group
- MTT assay (% of control group) ([1]; 1 × 10^−2 mg/ml, listed as genistein): 66 % of control group
- MTT assay (% of control group) ([1]; 1 × 10^−3 mg/ml): 85.5 ± 1.1 % of control group
- MTT assay (% of control group) ([1]; 1 × 10^−3 mg/ml, listed as genistein): 86 % of control group
- MTT assay (% of control group) ([1]; 1 × 10^−4 mg/ml): 95.7 ± 0.7 % of control group
- MTT assay (% of control group) ([1]; 1 × 10^−5 mg/ml): 97.3 ± 1.6 % of control group
- MTT assay (% of control group) ([1]; 1 × 10^−6 mg/ml): 90.5 ± 0.9 % of control group
- MTT assay (% of control group) ([1]; 1 × 10^−6 mg/ml, listed as genistein): 90.5 % of control group
- MTT assay (% of control group) ([1]; 1 × 10^−7 mg/ml): 95.9 ± 1.6 % of control group
- MTT assay (% of control group) ([1]; 1 × 10^−8 mg/ml): 96.9 ± 2.7 % of control group
- MTT assay (% of control group) ([1]; 1 × 10^−9 mg/ml): 91.3 ± 0.6 % of control group
- MTT assay (% of control group) ([1]; 1 × 10^−9 mg/ml, listed as genistein): 91 % of control group
- ALP activity (% of control group) ([2]; 1 × 10^−2 mg/ml): 62.3 ± 3.4 % of control group
- ALP activity (% of control group) ([2]; 1 × 10^−3 mg/ml): 98.8 ± 6.9 % of control group
- ALP activity (% of control group) ([2]; 1 × 10^−4 mg/ml): 121.1 ± 6.2 % of control group
- ALP activity (% of control group) ([2]; 1 × 10^−4 mg/ml, listed as genistein): 121 % of control group
- ALP activity (% of control group) ([2]; 1 × 10^−5 mg/ml): 113.5 ± 7.3 % of control group
- ALP activity (% of control group) ([2]; 1 × 10^−6 mg/ml): 103.8 ± 8.7 % of control group
- ALP activity (% of control group) ([2]; 1 × 10^−7 mg/ml): 109.3 ± 9.6 % of control group
- ALP activity (% of control group) ([2]; 1 × 10^−8 mg/ml): 101.5 ± 8.8 % of control group
- ALP activity (% of control group) ([2]; 1 × 10^−9 mg/ml): 106.1 ± 6.4 % of control group
- TBA (trabecular bone area) of tibia [3]: 47.65 ± 2.07 ×10^4 μm^2
- Change Rate (%) of TBA of tibia, of control group [3]: 137.62 ± 5.98%
- Change Rate (%) of TBA of tibia, of control group ([3]; listed as genistein): 138%
- TBA (trabecular bone area) of lumbars [4]: 86.58 ± 3.00 ×10^4 μm^2
- Change Rate (%) of TBA of lumbars, of control group [4]: 128.23 ± 4.45 %
- Change Rate (%) of TBA of lumbars, of control group ([4]; listed as genistein): 128%
- White blood cell count, before versus after operation (in words) ([5]; OVX rats after drug administration): did not show any changes
- Concentration of hemoglobin(Hb) [5, 7]: 14.70 ± 0.22 g/dL
- Granulocyte count [5, 7]: 2.38 ± 0.37 ×10^3 cells/μl
- Hematocrit(Ht) [5, 7]: 40.66 ± 0.56 %
- Lymphocyte count [5, 7]: 15.25 ± 3.21 ×10^3 cells/μl
- Monocyte count [5, 7]: 0.80 ± 0.19 ×10^3 cells/μl
- Red blood cell(RBC) count [5, 7]: 7.17 ± 0.13 ×10^6 cells/μl
- White blood cell count [5, 7]: 21.50 ± 2.53 ×10^3 cells/μl
- Concentration of hemoglobin(Hb) ([5]; before operation (baseline)): 15.82 ± 0.27 g/dL
- Granulocyte count ([5]; before operation (baseline)): 2.23 ± 0.10 ×10^3 cells/μl
- Hematocrit(Ht) ([5]; before operation (baseline)): 42.76 ± 0.65%
- Lymphocyte count ([5]; before operation (baseline)): 19.68 ± 4.52 ×10^3 cells/μl
- Monocyte count ([5]; before operation (baseline)): 0.77 ± 0.09 ×10^3 cells/μl
- Red blood cell(RBC) count ([5]; before operation (baseline)): 7.32 ± 0.13 ×10^6 cells/μl
- White blood cell count ([5]; before operation (baseline)): 27.30 ± 4.85 ×10^3 cells/μl
- Concentration of ALP in plasma [6, 8]: 212.10 ± 17.92 U/dL
- Concentration of HDL-cholesterol in plasma [6, 8]: 35.26 ± 1.92 mg/dL
- Concentration of LDL-cholesterol in plasma [6, 8]: 60.47 ± 7.04 mg/dL
- Concentration of blood urea nitrogen (BUN) [6, 8]: 18.26 ± 0.94 mg/dL
- Concentration of calcium in plasma [6, 8]: 8.97 ± 0.29 mg/dL
- Concentration of creatinin in plasma [6, 8]: 0.64 ± 0.02 mg/dL
- Concentration of inorganic phosphate in plasma [6, 8]: 6.47 ± 0.16 mg/dL
- Concentration of total cholesterol in plasma [6, 8]: 91.56 ± 3.65 mg/dL
- Concentration of ALP in plasma [6, 9]: 127.14 ± 9.95^##$$ U/dL
- Concentration of HDL-cholesterol in plasma [6, 9]: 29.27 ± 1.98 mg/dL
- Concentration of LDL-cholesterol in plasma [6, 9]: 91.80 ± 6.57^##$$ mg/dL
- Concentration of blood urea nitrogen (BUN) [6, 9]: 18.31 ± 0.86 mg/dL
- Concentration of calcium in plasma [6, 9]: 10.44 ± 0.22^$ mg/dL
- Concentration of creatinin in plasma [6, 9]: 0.82 ± 0.04^##$ mg/dL
- Concentration of inorganic phosphate in plasma [6, 9]: 5.62 ± 0.25 mg/dL
- Concentration of total cholesterol in plasma [6, 9]: 121.07 ± 6.53 mg/dL
- Level of inorganic phosphate 10 weeks after operation versus prior to operation (in words) ([6]; OVX rats, 10 mg/kg/day i.p.): remarkably decreased
- Plasma ALP activity 10 weeks after operation versus prior to and one week after operation (in words) ([6]; OVX rats, 10 mg/kg/day i.p.): significant decrease of ALP activity
- Concentration of ALP in plasma ([6]; before operation (baseline)): 208.86 ± 19.72 U/dL
- Concentration of HDL-cholesterol in plasma ([6]; before operation (baseline)): 61.12 ± 3.57 mg/dL
- Concentration of LDL-cholesterol in plasma ([6]; before operation (baseline)): 24.39 ± 3.63 mg/dL
- Concentration of blood urea nitrogen (BUN) ([6]; before operation (baseline)): 16.82 ± 0.60 mg/dL
- Concentration of calcium in plasma ([6]; before operation (baseline)): 10.61 ± 0.49 mg/dL
- Concentration of creatinin in plasma ([6]; before operation (baseline)): 0.51 ± 0.04 mg/dL
- Concentration of inorganic phosphate in plasma ([6]; before operation (baseline)): 7.18 ± 0.48 mg/dL
- Concentration of total cholesterol in plasma ([6]; before operation (baseline)): 85.51 ± 5.45 mg/dL
